System: CD8^+T cells
Assay: Multifunctionality of CD8^+T cells of metastatic lung cancer patients (stage IV) after metformin treatment of PBMC (flow cytometer)
Assay type: cell-based, human
Details: for Decrease, IFNγ 1-cytokine-producing cell / Decrease, IFNγ/IL-2 2-cytokine-producing cell / Decrease, IFNγ/TNFα 2-cytokine-producing cell / Decrease, IFNγ/TNFα/IL2 3-cytokine-producing cell / Increase, IFNγ 1-cytokine-producing cell / Increase, IFNγ/IL-2 2-cytokine-producing cell / Increase, IFNγ/TNFα 2-cytokine-producing cell / Increase, IFNγ/TNFα/IL2 3-cytokine-producing cell / No Change, IFNγ 1-cytokine-producing cell / No Change, IFNγ/IL-2 2-cytokine-producing cell / No Change, IFNγ/TNFα 2-cytokine-producing cell / No Change, IFNγ/TNFα/IL2 3-cytokine-producing cell: Cancer Patients (stage IV)
Protocol: 1. Peripheral blood was obtained from a test subject, and PBMC was separated by a density-gradient centrifugation using a lymphocyte-separating reagent Ficoll-Paque® (GE Healthcare). 3 mL of Ficoll-Paque® was dispensed in a 15-mL tube. 8 mL of the peripheral blood was gently placed on the reagent. At this time, care should be taken not to mix Ficoll-Paque® with the peripheral blood. Centrifugation was performed at 400 g for 30 minutes, thereby separating PBMC. 2. The separated PBMC was preserved in a −150° C. freezer or liquid nitrogen using Bambang Car cell preservation liquid by adjusting the cell number to 2.0×10^6 cell/tube. 3. In the test, the thawed PBMC was cultured for 1 to 10 hours in the presence or absence of […]. The culture was performed using a 24-well plate, and the cell number was adjusted to about 5.0×10^5 cell/well. 4. The cells were collected after 1 to 10 hours, washed with medium, and cultured in the presence of a cell activation reagent (potent nanomolar activator of protein kinase C (PMA, 50 ng/mL), ionomycin (1 μM)) for 6 hours, thereby non-specifically stimulating T cells. At this time, BD Gorgi Stop™ was added to keep the produced cytokines inside the cells. 5. The cells were isolated and washed twice with a cell-staining buffer. First, staining of CD8, PD-1, Tim-3, which are molecules expressed on the T cell surface, was performed. In the staining, a staining buffer was added in an amount of 50 μL per sample. The culture was performed at 4° C. for 30 minutes. 6. The cells were collected and washed twice with a cell-staining buffer. 500 μL of BD Cytofix/Cytoperm was added and cultured at 4° C. for 30 minutes. 7. The cells were collected and washed twice with BD Perm/Wash™. Staining of cytokines IL-2, TNFα, and IFNγ was performed. In the staining, BD Perm/Wash™ was added in an amount of 50 μL per sample. The culture was performed at 4° C. for 30 minutes. 8. The cells were collected and washed twice with BD Perm/Wash™, and 200 μL of BD Perm/Wash™ was added. 9. Analysis was performed using a FACSCanto™ II flow cytometer (Becton, Dickinson and Company).
Among the PBMC treated with PMA/ionomycin in the method shown in (2) above, first, a gate was applied to CD8^+T cells using a FACSCanto™ II flow cytometer (Becton, Dickinson and Company), and then […] were removed by FSC-A and FSC-H. Using parameters FSC-A and SSC-A, a gate was applied to a lymphocyte group, thereby analyzing expression of PD-1 and Tim-3. Further, intracellular cytokines IFNγ, TNFα, and IL-2 were stained, and multifunctionality of CD8^+T cells contained in the PBMC was analyzed (FIG. 1).
This Example analyzed test results regarding recovery of multifunctionality of CD8^+T cells by metformin in 10 healthy subjects and five metastatic lung cancer patients (stage IV) by the same method as in Example 1. As in Table 3, in Table 3, in addition to the total CD8^+T cells (total CD8T), cytokine production abilities were confirmed in four kinds of CD8^+T cells, i.e., PD-1-positive, Tim-3-negative CD8^+T cells, PD-1-positive, Tim-3-positive CD8^+T cells, PD-1-negative, Tim-3-positive CD8^+T cells, and PD-1-negative, Tim-3-negative CD8^+T cells (Table 4). Cytokine production ability refers to cytokine production ratios of three kinds of cytokines (A), IFNγ/TNFα/IL-2, two kinds of cytokines (B), IFNγ/TNFα, two kinds of cytokines (C), FNγ/IL-2, and one kind of cytokine (D), IFNγ.

SMILES: CN(C)C(=N)N=C(N)N [metformin]
- Decrease, IFNγ 1-cytokine-producing cell (PD-1+, Tim-3+, patients/total): 1/5
- Decrease, IFNγ/IL-2 2-cytokine-producing cell (PD-1+, Tim-3+, patients/total): 1/5
- Decrease, IFNγ/TNFα 2-cytokine-producing cell (PD-1+, Tim-3+, patients/total): 1/5
- Decrease, IFNγ/TNFα/IL2 3-cytokine-producing cell (PD-1+, Tim-3+, patients/total): 0/5
- Increase, IFNγ 1-cytokine-producing cell (PD-1+, Tim-3+, patients/total): 1/5
- Increase, IFNγ/IL-2 2-cytokine-producing cell (PD-1+, Tim-3+, patients/total): 1/5
- Increase, IFNγ/TNFα 2-cytokine-producing cell (PD-1+, Tim-3+, patients/total): 1/5
- Increase, IFNγ/TNFα/IL2 3-cytokine-producing cell (PD-1+, Tim-3+, patients/total): 0/5
- No Change, IFNγ 1-cytokine-producing cell (PD-1+, Tim-3+, patients/total): 3/5
- No Change, IFNγ/IL-2 2-cytokine-producing cell (PD-1+, Tim-3+, patients/total): 3/5
- No Change, IFNγ/TNFα 2-cytokine-producing cell (PD-1+, Tim-3+, patients/total): 3/5
- No Change, IFNγ/TNFα/IL2 3-cytokine-producing cell (PD-1+, Tim-3+, patients/total): 5/5
- Decrease, IFNγ 1-cytokine-producing cell (PD-1+, Tim-3−, patients/total): 1/5
- Decrease, IFNγ/IL-2 2-cytokine-producing cell (PD-1+, Tim-3−, patients/total): 1/5
- Decrease, IFNγ/TNFα 2-cytokine-producing cell (PD-1+, Tim-3−, patients/total): 2/5
- Decrease, IFNγ/TNFα/IL2 3-cytokine-producing cell (PD-1+, Tim-3−, patients/total): 0/5
- Increase, IFNγ 1-cytokine-producing cell (PD-1+, Tim-3−, patients/total): 0/5
- Increase, IFNγ/IL-2 2-cytokine-producing cell (PD-1+, Tim-3−, patients/total): 4/5
- Increase, IFNγ/TNFα 2-cytokine-producing cell (PD-1+, Tim-3−, patients/total): 1/5
- Increase, IFNγ/TNFα/IL2 3-cytokine-producing cell (PD-1+, Tim-3−, patients/total): 4/5
- No Change, IFNγ 1-cytokine-producing cell (PD-1+, Tim-3−, patients/total): 4/5
- No Change, IFNγ/IL-2 2-cytokine-producing cell (PD-1+, Tim-3−, patients/total): 0/5
- No Change, IFNγ/TNFα 2-cytokine-producing cell (PD-1+, Tim-3−, patients/total): 2/5
- No Change, IFNγ/TNFα/IL2 3-cytokine-producing cell (PD-1+, Tim-3−, patients/total): 1/5
- Decrease, IFNγ 1-cytokine-producing cell (PD-1−, Tim-3+, patients/total): 2/5
- Decrease, IFNγ/IL-2 2-cytokine-producing cell (PD-1−, Tim-3+, patients/total): 3/5
- Decrease, IFNγ/TNFα 2-cytokine-producing cell (PD-1−, Tim-3+, patients/total): 2/5
- Decrease, IFNγ/TNFα/IL2 3-cytokine-producing cell (PD-1−, Tim-3+, patients/total): 0/5
- Increase, IFNγ 1-cytokine-producing cell (PD-1−, Tim-3+, patients/total): 3/5
- Increase, IFNγ/IL-2 2-cytokine-producing cell (PD-1−, Tim-3+, patients/total): 0/5
- Increase, IFNγ/TNFα 2-cytokine-producing cell (PD-1−, Tim-3+, patients/total): 1/5
- Increase, IFNγ/TNFα/IL2 3-cytokine-producing cell (PD-1−, Tim-3+, patients/total): 0/5
- No Change, IFNγ 1-cytokine-producing cell (PD-1−, Tim-3+, patients/total): 0/5
- No Change, IFNγ/IL-2 2-cytokine-producing cell (PD-1−, Tim-3+, patients/total): 2/5
- No Change, IFNγ/TNFα 2-cytokine-producing cell (PD-1−, Tim-3+, patients/total): 2/5
- No Change, IFNγ/TNFα/IL2 3-cytokine-producing cell (PD-1−, Tim-3+, patients/total): 5/5
- Decrease, IFNγ 1-cytokine-producing cell (PD-1−, Tim-3−, patients/total): 2/5
- Decrease, IFNγ/IL-2 2-cytokine-producing cell (PD-1−, Tim-3−, patients/total): 2/5
- Decrease, IFNγ/TNFα 2-cytokine-producing cell (PD-1−, Tim-3−, patients/total): 2/5
- Decrease, IFNγ/TNFα/IL2 3-cytokine-producing cell (PD-1−, Tim-3−, patients/total): 0/5
- Increase, IFNγ 1-cytokine-producing cell (PD-1−, Tim-3−, patients/total): 1/5
- Increase, IFNγ/IL-2 2-cytokine-producing cell (PD-1−, Tim-3−, patients/total): 1/5
- Increase, IFNγ/TNFα 2-cytokine-producing cell (PD-1−, Tim-3−, patients/total): 1/5
- Increase, IFNγ/TNFα/IL2 3-cytokine-producing cell (PD-1−, Tim-3−, patients/total): 2/5
- No Change, IFNγ 1-cytokine-producing cell (PD-1−, Tim-3−, patients/total): 2/5
- No Change, IFNγ/IL-2 2-cytokine-producing cell (PD-1−, Tim-3−, patients/total): 2/5
- No Change, IFNγ/TNFα/IL2 3-cytokine-producing cell (PD-1−, Tim-3−, patients/total): 3/5
- Decrease, IFNγ 1-cytokine-producing cell (Total CD8T, patients/total): 3/5
- Decrease, IFNγ/IL-2 2-cytokine-producing cell (Total CD8T, patients/total): 0/5
- Decrease, IFNγ/TNFα 2-cytokine-producing cell (Total CD8T, patients/total): 4/5
- Decrease, IFNγ/TNFα/IL2 3-cytokine-producing cell (Total CD8T, patients/total): 0/5
- Increase, IFNγ 1-cytokine-producing cell (Total CD8T, patients/total): 0/5
- Increase, IFNγ/IL-2 2-cytokine-producing cell (Total CD8T, patients/total): 1/5
- Increase, IFNγ/TNFα 2-cytokine-producing cell (Total CD8T, patients/total): 1/5
- Increase, IFNγ/TNFα/IL2 3-cytokine-producing cell (Total CD8T, patients/total): 1/5
- No Change, IFNγ 1-cytokine-producing cell (Total CD8T, patients/total): 2/5
- No Change, IFNγ/IL-2 2-cytokine-producing cell (Total CD8T, patients/total): 4/5
- No Change, IFNγ/TNFα 2-cytokine-producing cell (Total CD8T, patients/total): 0/5
- No Change, IFNγ/TNFα/IL2 3-cytokine-producing cell (Total CD8T, patients/total): 4/5
- Increase + No Change, IFNγ/TNFα/IL2, share of patients (Total CD8T, Patients (stage IV)): 100%
- Increase + No Change, IFNγ/TNFα/IL2 (Total CD8T, Patients (stage IV), patients/total): 5/5
- decrease in multifunctionality by the metformin treatment (three kinds of cytokines) (cancer patients (stage IV)): very small (zero)

Source: US20170231929A1, “METHOD FOR ENHANCING IMMUNE CELL FUNCTION AND METHOD FOR ASSESSING IMMUNE CELL MULTIFUNCTIONALITY” (NATIONAL UNIVERSITY CORPORATION OKAYAMA UNIVERSITY, priority 2014, published 2017)
